Results reported in ChEMBL document CHEMBL1208694, “Aryl sulfonamides containing tetralin allylic amines as potent and selective bradykinin B1 receptor antagonists” (Bioorg Med Chem Lett, 2010).

How the values were obtained:
B1 bradykinin receptor [1] = target: T1, B1 bradykinin receptor (Homo sapiens, UniProt P46663); assay: Displacement of [3H]Lys-desArg9-BK from human bradykinin B1 receptor
T1 sequence (P46663 whole entry): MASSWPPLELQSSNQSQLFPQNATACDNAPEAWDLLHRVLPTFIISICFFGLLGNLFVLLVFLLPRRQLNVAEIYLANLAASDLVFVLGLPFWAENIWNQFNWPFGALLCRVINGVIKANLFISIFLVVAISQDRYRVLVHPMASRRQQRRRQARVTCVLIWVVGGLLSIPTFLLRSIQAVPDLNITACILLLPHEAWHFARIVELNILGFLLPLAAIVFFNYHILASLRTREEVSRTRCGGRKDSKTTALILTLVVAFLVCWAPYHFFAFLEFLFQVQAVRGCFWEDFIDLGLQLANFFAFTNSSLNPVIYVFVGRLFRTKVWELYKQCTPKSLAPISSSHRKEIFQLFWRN

B1 bradykinin receptor [2] = target: T1, B1 bradykinin receptor; assay: Antagonist activity at human bradykinin B1 receptor assessed as inhibition of Lys-desArg9-BK-induced calcium flux; assay type: functional
[3] = Metabolic stability in rat liver microsomes; assay type: ADME, Microsome; settings: read-out: Stability
[4] = Oral bioavailability in rat at 10 mg/kg; settings: in vivo
[5] = Volume of distribution at steady state in rat at 1 mg/kg, iv; assay type: ADME, organism-based; set-up: dose 1 mg/kg, route intravenous; settings: in vivo, read-out: Vdss
[6] = Clearance in rat at 1 mg/kg, iv; assay type: ADME, organism-based; set-up: dose 1 mg/kg, route intravenous; settings: in vivo
[7] = Half life in rat at 1 mg/kg, iv; assay type: ADME, organism-based; set-up: dose 1 mg/kg, route intravenous; settings: in vivo

Row | Ki (B1 bradykinin receptor [1]) [nM] | IC50 (B1 bradykinin receptor [2]) [nM] | microsomal CLint [3] [µL/min/mg] | bioavailability [4] [%] | Vd [5] [L/kg] | clearance [6] [mL/min/kg] | half-life [7] [min] | SMILES
1 | 34 | 316 | – | – | – | – | – | CC(CN1CCCCC1)c1ccc2c(c1)CCC[C@H]2NC(=O)C[C@@H](NS(=O)(=O)c1cccc(C(F)(F)F)c1)c1ccccc1 (stereo partly specified)
2 | 14 | 88 | – | – | – | – | – | O=C(C[C@@H](NS(=O)(=O)c1cccc(C(F)(F)F)c1)c1ccccc1)N[C@@H]1CCCc2cc(C3(CN4CCCCC4)CC3)ccc21
3 | 3.3 | 41 | – | – | – | – | – | C=C(CN1CCCCC1)c1ccc2c(c1)CCC[C@H]2NC(=O)C[C@@H](NS(=O)(=O)c1cccc(C(F)(F)F)c1)c1ccccc1
4 | 0.7 | 9.7 | 282 | 10 | 3.62 | 30.6 | 90 | C=C(CN1CCCC1)c1ccc2c(c1)CCC[C@H]2NC(=O)C[C@@H](NS(=O)(=O)c1cccc(C(F)(F)F)c1)c1ccccc1
5 | 3.5 | 3.9 | – | – | – | – | – | C=C(CN1CC[C@H](O)C1)c1ccc2c(c1)CCC[C@H]2NC(=O)C[C@@H](NS(=O)(=O)c1cccc(C(F)(F)F)c1)c1ccccc1
6 | 12 | 15 | – | – | – | – | – | C=C(CN1CC[C@@H](O)C1)c1ccc2c(c1)CCC[C@H]2NC(=O)C[C@@H](NS(=O)(=O)c1cccc(C(F)(F)F)c1)c1ccccc1
7 | 12 | 206 | – | – | – | – | – | C=C(CN1CCC1)c1ccc2c(c1)CCC[C@H]2NC(=O)C[C@@H](NS(=O)(=O)c1cccc(C(F)(F)F)c1)c1ccccc1
8 | 78 | 154 | – | – | – | – | – | C=C(CN(C)C)c1ccc2c(c1)CCC[C@H]2NC(=O)C[C@@H](NS(=O)(=O)c1cccc(C(F)(F)F)c1)c1ccccc1
9 | 21 | 32 | – | – | – | – | – | C=C(CNCCO)c1ccc2c(c1)CCC[C@H]2NC(=O)C[C@@H](NS(=O)(=O)c1cccc(C(F)(F)F)c1)c1ccccc1
10 | 42 | 23 | – | – | – | – | – | C=C(CNCCOC)c1ccc2c(c1)CCC[C@H]2NC(=O)C[C@@H](NS(=O)(=O)c1cccc(C(F)(F)F)c1)c1ccccc1
11 | 16 | 105 | – | – | – | – | – | C=C(CNCC1CC1)c1ccc2c(c1)CCC[C@H]2NC(=O)C[C@@H](NS(=O)(=O)c1cccc(C(F)(F)F)c1)c1ccccc1
12 | 11 | 78 | – | – | – | – | – | C=C(CNC(C)(C)C)c1ccc2c(c1)CCC[C@H]2NC(=O)C[C@@H](NS(=O)(=O)c1cccc(C(F)(F)F)c1)c1ccccc1
13 | 4.6 | 42 | 240 | 15 | 5.86 | 33.2 | 144 | C=C(CNC(C)C)c1ccc2c(c1)CCC[C@H]2NC(=O)C[C@@H](NS(=O)(=O)c1cccc(C(F)(F)F)c1)c1ccccc1
14 | 3.4 | 44 | – | – | – | – | – | C=C(CNC1CCC1)c1ccc2c(c1)CCC[C@H]2NC(=O)C[C@@H](NS(=O)(=O)c1cccc(C(F)(F)F)c1)c1ccccc1
15 | 30 | 47 | – | – | – | – | – | C=C(CNC1CCCC1)c1ccc2c(c1)CCC[C@H]2NC(=O)C[C@@H](NS(=O)(=O)c1cccc(C(F)(F)F)c1)c1ccccc1
16 | – | 1.3 | – | – | – | – | – | C=C(CN1CCCC1)c1ccc2c(c1)CCC[C@H]2NC(=O)C[C@@H](NS(=O)(=O)c1cccc(C(F)(F)F)c1)c1ccc(F)cc1
